The test system of the first test is HCV 1b genotype. The test can be described thus: HCV Replicon assay (HCV-neo replicon cells, wild-type). Format: cell-based. Conditions: HCV 1b genotype replicon; read-out: 1b EC50 (in μM or range). A general note: In antiviral work, replicon cells carry a viral genome segment that copies itself.
A word on the EC50: it is the concentration at which the effect is half-maximal. Consider `COC(=O)N[C@@H](C(=O)N1CCC[C@H]1C(=O)Nc1ccc(C#Cc2ccc(NC(=O)[C@@H]3CCCN3C(=O)[C@H](NC(=O)OC)c3ccccc3)cc2)cc1)c1ccccc1` [VN55, Dimethyl (1,2-ethynediylbis(4,1-phenylenecarbamoyl(2S)-2,1-pyrrolidinediyl((1R)-2-oxo-1-phenyl-2,1-ethanediyl)))biscarbamate], for which the EC50 was found to be 0.013 nM.

The test is the same for the next values; noted with them: Hepatitis C virus, HCV 1b genotype replicon; range class A-D; read-out: 1b EC50 (in μM or range).
For the compound `CC[C@@H](C(=O)N1CCC[C@H]1C(=O)Nc1ccc(C#Cc2ccc(NC(=O)[C@@H]3CCCN3C(=O)[C@H](CC)c3ccccc3)cc2)cc1)c1ccccc1` [VN7, (2S,2′S)-N,N′-(1,2-ethynediyldi-4,1-phenylene)bis(1-((2R)-2-phenylbutanoyl)-2-pyrrolidinecarboxamide)], the EC50 is less than 4.57 nM.

Regarding `O=C(Nc1ccc(C#Cc2ccc(NC(=O)[C@@H]3CCCN3C(=O)[C@H](O)c3ccccc3)cc2)cc1)[C@@H]1CCCN1C(=O)[C@H](O)c1ccccc1` [Example D43, (2S,2′S)-N,N′-(1,2-ethynediyldi-4,1-phenylene)bis(1-((2R)-2-hydroxy-2-phenylacetyl)-2-pyrrolidinecarboxamide)], the EC50 is less than 4.57 nM.

For `CC(=O)O[C@@H]1C[C@@H](C(=O)Nc2ccc(C#Cc3ccc(NC(=O)[C@@H]4CCCN4C(C)=O)cc3)cc2)N(C(=O)Cc2ccccc2)C1` [Example D27, (3R,5S)-5-((4-((4-((((2S)-1-Acetyl-2-pyrrolidinyl)carbonyl)amino)phenyl)ethynyl)phenyl)carbamoyl)-1-(phenylacetyl)-3-pyrrolidinyl acetate], the EC50 is 4.57 to 99 nM.

Regarding `CC(=O)N1CCN(C(C(=O)N2CCC[C@H]2C(=O)Nc2ccc(C#Cc3ccc(NC(=O)[C@@H]4CCCN4C(=O)C(c4ccccc4)N4CCN(C(C)=O)CC4)cc3)cc2)c2ccccc2)CC1` (stereo partly drawn) [VN48, (2S,2′S)-N,N′-(1,2-ethynediyldi-4,1-phenylene)bis(1-((4-acetyl-1-piperazinyl)(phenyl)acetyl)-2-pyrrolidinecarboxamide)], the concentration for a half-maximal effect (EC50) is less than 4.57 nM.

For the compound `O=C(Nc1ccc(C#Cc2ccc(NC(=O)[C@@H]3CCCN3C(=O)C(c3ccccc3)N3CC[C@H](O)C3)cc2)cc1)[C@@H]1CCCN1C(=O)C(c1ccccc1)N1CC[C@H](O)C1` (stereo partly drawn) [VN51, (2S,2′S)-N,N′-(1,2-ethynediyldi-4,1-phenylene)bis(1-(((3S)-3-hydroxy-1-pyrrolidinyl)(phenyl)acetyl)-2-pyrrolidinecarboxamide)], the EC50 lay within 4.57 to 99 nM.

In the case of `CS(=O)(=O)N[C@@H](C(=O)N1CCC[C@H]1C(=O)Nc1ccc(C#Cc2ccc(NC(=O)[C@@H]3CCCN3C(=O)[C@H](NS(C)(=O)=O)c3ccccc3)cc2)cc1)c1ccccc1` [VN27, (2S,2′S)-N,N′-(1,2-ethynediyldi-4,1-phenylene)bis(1-((2R)-2-((methylsulfonyl)amino)-2-phenylacetyl)-2-pyrrolidinecarboxamide)], the EC50 was less than 4.57 nM.

As to `O=C(Nc1ccc(C#Cc2ccc(NC(=O)[C@@H]3CCCN3C(=O)Cc3ccccc3)cc2)cc1)[C@@H]1CCCN1C(=O)Cc1ccccc1` [Example D2, (2S,2′S)-N,N′-(1,2-ethynediyldi-4,1-phenylene)bis(1-(phenylacetyl)-2-pyrrolidinecarboxamide)], the 50% effective concentration (EC50) was less than 4.57 nM.

Turning to `C[C@](O)(C(=O)N1CCC[C@H]1C(=O)Nc1ccc(C#Cc2ccc(NC(=O)[C@@H]3CCCN3C(=O)[C@](C)(O)c3ccccc3)cc2)cc1)c1ccccc1` [VN2, (2S,2′S)-N,N′-(1,2-ethynediyldi-4,1-phenylene)bis(1-((2R)-2-hydroxy-2-phenylpropanoyl)-2-pyrrolidinecarboxamide)], the 50% effective concentration (EC50) was less than 4.57 nM.

Turning to `O=C(Nc1ccc(C#Cc2ccc(NC(=O)[C@@H]3CCCCN3C(=O)OCc3ccccc3)cc2)cc1)[C@@H]1CCCCN1C(=O)OCc1ccccc1` [Example D12, Dibenzyl (2S,2′S)-2,2′-(1,2-ethynediylbis(4,1-phenylenecarbamoyl))di(1-piperidinecarboxylate)], the concentration for a half-maximal effect (EC50) lay in the range of 100 to 999 nM.

`COc1cccc2c(C(=O)N3CCC[C@H]3C(=O)Nc3ccc(C#Cc4ccc(NC(=O)[C@@H]5CCCN5C(C)=O)cc4)cc3)nc(Cl)cc12` [Example D46, (2S)-1-Acetyl-N-(4-((4-((((2S)-1-((3-chloro-5-methoxy-1-isoquinolinyl)carbonyl)-2-pyrrolidinyl)carbonyl)amino)phenyl)ethynyl)phenyl)-2-pyrrolidinecarboxamide]: the EC50 lay within 100 to 999 nM.

Regarding `CC(=O)N[C@@H](C(=O)N1CCC[C@H]1C(=O)Nc1ccc(C#Cc2ccc(NC(=O)[C@@H]3CCCN3C(=O)[C@H](NC(C)=O)c3ccccc3)cc2)cc1)c1ccccc1` [VN26, (2S,2′S)-N,N′-(1,2-ethynediyldi-4,1-phenylene)bis(1-((2R)-2-acetamido-2-phenylacetyl)-2-pyrrolidinecarboxamide)], the EC50 was less than 4.57 nM.

Staying with this test, now noted: Hepatitis C virus, HCV 1b genotype replicon; read-out: 1b EC50 (in μM or range).
On to `CC(=O)N1CCC[C@H]1C(=O)Nc1ccc(C#Cc2ccc(NC(=O)[C@@H]3CCCN3C(=O)Cc3ccccc3)cc2)cc1` [Example D22, (2S)-1-Acetyl-N-(4-((4-((((2S)-1-(phenylacetyl)-2-pyrrolidinyl)carbonyl)amino)phenyl)ethynyl)phenyl)-2-pyrrolidinecarboxamide], for which the concentration giving a half-maximal response (EC50) was found to be 140 nM.

As to `O=C(Nc1ccc(C#Cc2ccc(NC(=O)[C@@H]3CCCN3C(=O)C(c3ccccc3)N3CCC(O)CC3)cc2)cc1)[C@@H]1CCCN1C(=O)C(c1ccccc1)N1CCC(O)CC1` (stereo partly drawn) [VN21, (2S,2′S)-N,N′-(1,2-ethynediyldi-4,1-phenylene)bis(1-((4-hydroxy-1-piperidinyl)(phenyl)acetyl)-2-pyrrolidinecarboxamide)], the EC50 came out at 0.035 nM.

For the compound `COc1ccc2c(C(=O)N3CCC[C@H]3C(=O)Nc3ccc(C#Cc4ccc(NC(=O)[C@@H]5CCCN5C(=O)c5nc(Cl)cc6cc(OC)ccc56)cc4)cc3)nc(Cl)cc2c1` [Example D35, (2S,2′S)-N,N′-(1,2-ethynediyldi-4,1-phenylene)bis(1-((3-chloro-6-methoxy-1-isoquinolinyl)carbonyl)-2-pyrrolidinecarboxamide)], the EC50 was 94 nM.

Turning to `Cn1c(C(=O)N2CCC[C@H]2C(=O)Nc2ccc(C#Cc3ccc(NC(=O)[C@@H]4CCCN4C(=O)c4cc5ccccc5n4C)cc3)cc2)cc2ccccc21` [Example D30, (2S,2′S)-N,N′-(1,2-ethynediyldi-4,1-phenylene)bis(1-((1-methyl-1H-indol-2-yl)carbonyl)-2-pyrrolidinecarboxamide)], the concentration giving a half-maximal response (EC50) worked out at 1210 nM.

With `O=C(CC1CC1)Nc1ccc(C#Cc2ccc(NC(=O)[C@@H]3CCCN3C(=O)[C@H]3CCCO3)cc2)cc1` [Example D23, N-(4-((4-((cyclopropylacetyl)amino)phenyl)ethynyl)phenyl)-1-((2R)-tetrahydro-2-furanylcarbonyl)-L-prolinamide], the 50% effective concentration (EC50) turned out to be 2600 nM.

For the origin of these results see patent publication US8383094B2, “Hepatitis C virus inhibitors” (Bristol-Myers Squibb Company, priority 2008, dated 2013).
